Structures are written as SMILES.

These results are taken from US9643968B2, “Fused acridine derivative and pharmaceutical composition, preparation method and use thereof” (Peking University, priority 2014, dated 2017).

In one series the test system is tumor cells (U87MG). The series is described as follows: Assay for inhibiting cancer cell clone formation (soft agar). In kind it is cell-based, human. Conditions: concentration range from 0.020 to 0.090 μM, 10-14 days. Here is the method:
Materials and methods: The tested tumor cells (U87MG) in the logarithmic phase were digested with 0.25% trypsin then percussed gently to the single cell state, and counted the live cells. The cells density was adjusted to 1×10^6[…] with DMEM containing 20% fetal bovine serum, and then diluted gradiently according to the experiment requirement.
Two concentrations (1.2% and 0.7%) of low melting point agarose fluid were prepared with distilled water respectively. A mixture of 1.2% agarose fluid and 2×DMEM medium (contains 2× antibiotics and 20% calf serum) was prepared in 1:1 ratio, then transferred (3 mL) into 6 cm diameter flat dishes, cooled to solidification to furnish the bottom agar which was stored in a CO2 incubator. The cell suspension (0.2 mL) was added to a mixture of 0.7% agarose and 2×DMEM medium which was prepared in 1:1 ratio in sterile tubes, and thoroughly mixed before injection to the precoated dishes to form the double layer agar. After the upper agar being solidified, the dishes were incubated in 37° C. and 5% CO2 for 10-14 days, each experiment was performed in 3-6 times.
The number of clones was counted under an inverted microscope. The clone formation rate was calculated.

Series [1] can be described thus: Body weight in U87MG tumor-bearing mice. In kind it is in vivo, BALB/c nude mice. Conditions: oral qd × 5/w. Here is the method:
(§1) Animals: Female 6-8 weeks BALB/c nude mice weighed 16 to 18 g. They were raised at SPF-level animal room with a 12 h light-dark cycle; drinking and eating were provided ad libitum.
(§2) Under aseptic conditions, U87MG cells in the logarithmic phase were digested and its density was adjusted. U87MG cells were inoculated hypodermically in BALB/c nude mice, 0.1 mL for each mouse. The diameter of the transplantation was measured with a Vernier caliper. After their tumor size was about 100-200 mm^3, 36 mice were randomly divided into 5 groups according to the tumor size. The mice of each group was orally administered the dose respectively according to the above-mentioned schedule, and the mice of the vehicle group were given same dose of saline. The first day of dosing named for D1. The long diameter and short diameter of the tumor size of each mouse were measured twice a week, and the body weights were recorded at the same time.
(§3) Indicators for antitumor efficacy evaluation including: relative tumor inhibition rate, body weight, general state of the mice and related toxicity index. Curves of tumor growth and body weight change of every group were plotted at the end of the experiment.

Another series has as its system U87MG cells. The series is described as follows: In vivo antitumor activity test, U87MG subcutaneous xenograft. Also noted: species or system BALB/c nude mice. Conditions: oral qd × 5/w; for tumor inhibition rate (IR): 10 doses, by tumor weight. Here is the method:
as §1, §2
Indicators were observed, measured, and recorded from the first day of dosing. The tumor size was measured using a Vernier caliper to calculate tumor volume change and the tumor growth. After the tumor-burdened mice were executed and dissected, the tumor tissues were separated, and weighed.
as §3
The calculation formula for tumor volume (TV) is: TV=½×a×b^2, where a and b means long diameter and short diameter of the tumor size respectively.
Tumor inhibition rate IR (%)=(1−TTW/CTW)×100%, TTW: TW of the treatment group; CTW: TW of the control group.
Statistical analysis: Data were analyzed using SPSS 11.0 with Student t-test for comparisons and ANOVA. P-values <0.05 were considered significant.

For series [2], the system named is HCT116 (human colon cancer cell). Kind of series: MTT in vitro cytotoxicity, HCT116. Format: cell-based. Particulars: HCT-116, 72 hr incubation. Here is the method: (§4) Materials and methods: MTT (3-[4,5-dimethylthiazol-2-yl]-diphenyl tetrazolium bromide) method was employed to determine the antiproliferative activity of all the compounds of the Examples and Contrasting Examples in vitro against selected cell lines, including HCT116 (human colon cancer cell), PC-3 (human prostate cancer), HepG2 (human hepatocellular carcinoma), SK-OV-3 (human ovarian adenocarcinoma), MCF-7 (human breast cancer), U87MG (human glioblastoma cell) cell lines.
(§5) Procedure: Human tumor cells of HCT116, PC-3, HepG2, SK-OV-3, MCF-7, and U87MG were in vitro cultured, and collected until the cells grow to the logarithmic phase. The cells were centrifuged for 5 minutes at 1000 rpm, and supernatant was discarded. Subsequently appropriate culture medium was added to suspend the precipitation, and the concentration of cells was adjusted to 3.5˜5.5×10^4/mL. the suspensions of cells were seeded in 96-well microplate at 100 μL per well, and incubated in incubator (37° C., 5% CO2) for 24 hr. The compound to test was added. For the control group, equivalent concentration of DMSO (final concentration 0.5%) was added. For each group, three copy wells were set. After incubated for 72 hr, 20 μL 5 mg/mL of MTT was added into each well, and placed at 37° C. for 3 hr. 150 μL of DMSO was added into each wells, and vibrated the shaker at 37° C. for 5 mins, then measured the absorbance (OD) value at 492 nm/620 nm. The IC50 values were calculated using Prism 5.0 software.

Series [3] concerns MCF-7 (human breast cancer). Kind of series: MTT in vitro cytotoxicity, MCF-7. In kind it is cell-based. Particulars: MCF7, 72 hr incubation. Here is the method: as §4, §5
Series [4] relates to HepG2 (human hepatocellular carcinoma). Kind of series: MTT in vitro cytotoxicity, HepG2. In kind it is cell-based. Particulars: 72 hr incubation. Here is the method: as §4, §5
Series [5] deals with PC-3 (human prostate cancer). The series is described as follows: MTT in vitro cytotoxicity, PC-3. Particulars: 72 hr incubation, read-out: IC50 PC3. In kind it is cell-based. The procedure: as §4, §5
Series [6] concerns U87MG (human glioblastoma cell). The series is described as follows: MTT in vitro cytotoxicity, U87MG. Particulars: U-87 MG, 72 hr incubation. Format: cell-based. The procedure:
as §4, §5

Series [7] has as its system SK-OV-3 (human ovarian adenocarcinoma). The series is described as follows: MTT in vitro cytotoxicity, SK-OV-3. Format: cell-based. Conditions: 72 hr incubation. The procedure: as §4, §5

Take `COc1ccc2nc3c(C)ccc4c3c(c2c1)C(=O)N4CCN(C)C.O=C(O)/C=C/C(=O)O` [Compound 5c′, 2-(2-(dimethylamino)ethyl)-9-methoxy-5-methylpyrrolo[2,3,4-kl]-acridin-1-(2H)-one fumarate]: the “inhibition of glioma cell clone formation” value with tumor cells (U87MG) was “significantly inhibited”. In series [1] (high dose group (80 mg/kg)), the “animal weight compared with the vehicle” value is listed as “grew slowly compared with the vehicle” and the “animal weight loss compared with the positive control (TMZ) group” value is listed as “significantly lower than the positive control”. The “animal weight compared with the vehicle” value in [1] (median dose group (40 mg/kg)) is “grew slowly compared with the vehicle”. Moreover, in the series with U87MG cells (high dose group (80 mg/kg)), the “tumor size compared with the vehicle” value is “significantly smaller than the vehicle” and the “tumor inhibition rate (IR)” value is 91%. Also, in the series on U87MG cells (median dose group (40 mg/kg)), the “tumor size compared with the vehicle” value was “significantly smaller than the vehicle” and the “tumor inhibition rate (IR)” value turned out to be 69%.

With `CN(C)CCCN1C(=O)c2c3cc(Br)ccc3nc3cccc1c23` [Compound 7b, 9-bromo-2-(3-(dimethylamino)propyl)pyrrolo[2,3,4-kl]acridin-1-(2H)-one], the values for the 50% inhibitory concentration (IC50) in series [2], in series [3] and in series [4] were 2.27 µM, 2.15 µM and 3.84 µM, respectively.

Regarding `CN(C)CCCN1C(=O)c2c3cc(I)ccc3nc3cccc1c23` [Compound 7d, 2-(3-(dimethylamino)propyl)-9-iodopyrrolo[2,3,4-kl]acridin-1-(2H)-one], the IC50 came to 2.64 µM in series [2], 2.8 µM in [3] and 3.78 µM in [4].

For the compound `CN(C)CCN1C(=O)c2c3cc(Br)ccc3nc3cccc1c23` [Compound 7a, 9-bromo-2-(2-(dimethylamino)ethyl)pyrrolo[2,3,4-kl]acridin-1-(2H)-one], the IC50 in series [2] came to 1.87 µM; in [3], 1.97 µM; in series [4] it was 1.85 µM.

Regarding `Cn1nnc2c(C(N)=O)ncn2c1=O` [TMZ, Temozolomide, reference compound], the “animal weight compared with the vehicle” value in series [1] (50 mg/kg) was “significant lower compared with the vehicle”.

For the compound `O=C1c2c3ccccc3nc3cccc(c23)N1CCCN1CCCC1` [Compound 1h, 2-(3-(pyrrolidin-1-yl)propyl)pyrrolo[2,3,4-kl]acridin-1-(2H)-one], the concentration for half-maximal inhibition (IC50) was determined as 1.8 µM in [2]; 11.9 µM in series [5]; 10.2 µM in series [6]; 11.9 µM in series [7]; 8.15 µM in series [4].

`CN(C)CCN1C(=O)c2c3ccccc3nc3cccc1c23` [Compound 1a, 2-(2-(dimethylamino)ethyl)pyrrolo[2,3,4-kl]acridin-1-(2H)-one]: the 50% inhibitory concentration (IC50) in series [2] stood at 7.41 µM; in series [5], 14.5 µM; in series [6] it was 0.582 µM; in series [7] it was 14.8 µM; in series [4], 6.35 µM.

For the compound `O=C1c2c3ccccc3nc3cccc(c23)N1CCN1CCCCC1` [Compound 1f, 2-(2-(piperidin-1-yl)ethyl)pyrrolo[2,3,4-kl]acridin-1-(2H)-one], the IC50 in series [2] is 1.13 µM; in series [5], 3.19 µM; in series [6], 3.93 µM; in series [7] it was 3.65 µM; in [4], 2.27 µM.
